We go through five compounds from US20100004243A1, “PHARMACEUTICAL COMPOUNDS” (Astex Therapeutics Limited, priority 2006, published 2010).

Molecules are shown by their SMILES.

In one assay the target is T1, CDK4/CyclinD1 (Homo sapiens, UniProt P11802).
T1 construct: purchased Proqinase
Description: CDK4 kinase inhibitory activity assay (IC50). The conditions noted are these: read-out: IC50 against CDK4. The format is biochemical. The procedure: Assays for CDK4 inhibitory activity can be carried out using the proprietary 33 PanQinase® Activity Assay of Proqinase GmbH, Freiburg, Germany. The assays are performed in 96 well FlashPlates™ (PerkinElmer). In each case, the reaction cocktail (50 μl final volume) is composed of; 20 μl assay buffer (final composition 60 mM HEPES-NaOH, pH 7.5, 3 mM MgCl2, 3 μM Na-orthovanadate, 1.2 mM DTT, 50 μg/ml PEG2000, 5 μl ATP solution (final concentration 1 μM [γ-33P]-ATP (approx 5×10^5 cpm per well)), 5 μl test compound (in 10% DMSO), 10 μl substrate/10 μl enzyme solution (premixed). The final amounts of enzyme and substrate are as below.
The reaction cocktail is incubated at 30° C. for 80 minutes. The reaction is stopped with 50 μl of 2% H3PO4, plates are aspirated and washed twice with 200 μl 0.9% NaCl. Incorporation of ^33P is determined with a microplate scintillation counter. Background values are subtracted from the data before calculating the residual activities for each well. IC50s are calculated using Prism 3.03.
Compounds of the invention can be tested for kinase inhibitory activity using the following protocol.
CDK4/CyclinD1 (Proqinase) is diluted to 12.5 nM in 5 mM Tris pH 7.5, 2.5 mM MgCl2, 25 μM EDTA, 2.5 m M DTT and 125 μM ATP. 10 μl of the enzyme solution is mixed with 10 μl of 100 μl biotin -KAPLSPKKAK4 (Altabioscience, 1 mM stock—10 mg in 2,250 μl H20), 900 μl H2O, 1 μl 10% triton and 35 μCi γ^33P-ATP) and added to 96 well plates along with 5 μl of various dilutions of the test compound in DMSO (up to 4%). The reaction is allowed to proceed for 2 hours before being stopped with an excess of ortho-phosphoric acid (20 μl at 2%).
γ^33P-ATP which remains unincorporated into the biotin -KAPLSPKKAK4 is separated from phosphorylated biotin -KAPLSPKKAK4 on a Millipore MAPH filter plate. The wells of the MAPH plate are wetted with 0.5% orthophosphoric acid, and then the results of the reaction are filtered with a Millipore vacuum filtration unit through the wells. Following filtration, the residue is washed twice with 200 μl of 0.5% orthophosphoric acid. Once the filters have dried, 20 μl of Microscint 20 scintillant is added, and then counted on a Packard Topcount for 30 seconds.
The % inhibition of the CDK4 activity is calculated and plotted in order to determine the concentration of test compound required to inhibit 50% of the CDK4 activity (IC50).

The target of a further assay is CDK2/CyclinA (Homo sapiens, UniProt P24941). In words: Activated CDK2/CyclinA kinase inhibitory activity assay, compared with CDK4. The format is biochemical. The method, then: Compounds of the invention were tested for kinase inhibitory activity using the following protocol.
Activated CDK2/CyclinA (Brown et al, Nat. Cell Biol., 1, pp 438-443, 1999; Lowe, E. D., et al Biochemistry, 41, pp 15625-15634, 2002) is diluted to 125 pM in 2.5× strength assay buffer (50 mM MOPS pH 7.2, 62.5 mM β-glycerophosphate, 12.5 mM EDTA, 37.5 mM MgCl2, […], 2.5 mM DTT, 2.5 mM sodium orthovanadate, 0.25 mg/ml bovine serum albumin), and 10 μl mixed with 10 μl of histone substrate mix (60 μl bovine histone Hi (Upstate Biotechnology, 5 mg/ml), 940 μl H2O, 35 μCi γ^33P-ATP) and added to 96 well plates along with 5 μl of various dilutions of the test compound in DMSO (up to 2.5%). The reaction is allowed to proceed for 2 to 4 hours before being stopped with an excess of orthophosphoric acid (5 μl at 2%). γ^33P-ATP which remains unincorporated into the histone H1 is separated from phosphorylated histone H1 on a Millipore MAPH filter plate. The wells of the MAPH plate are wetted with 0.5% orthophosphoric acid, and then the results of the reaction are filtered with a Millipore vacuum filtration unit through the wells. Following filtration, the residue is washed twice with 200 μl of 0.5% orthophosphoric acid. Once the filters have dried, 20 μl of Microscint 20 scintillant is added, and then counted on a Packard Topcount for 30 seconds.
The % inhibition of the CDK2 activity is calculated and plotted in order to determine the concentration of test compound required to inhibit 50% of the CDK2 activity (IC50).

T1 sequence (P11802 whole entry): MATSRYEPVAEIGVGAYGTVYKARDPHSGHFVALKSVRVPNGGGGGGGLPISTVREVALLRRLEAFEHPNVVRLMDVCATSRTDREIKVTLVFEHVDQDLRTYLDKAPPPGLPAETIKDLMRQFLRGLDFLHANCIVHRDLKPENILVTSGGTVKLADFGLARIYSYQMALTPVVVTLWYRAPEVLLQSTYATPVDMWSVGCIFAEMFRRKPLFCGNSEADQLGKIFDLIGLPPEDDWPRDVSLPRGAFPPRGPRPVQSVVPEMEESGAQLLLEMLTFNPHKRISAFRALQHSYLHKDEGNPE
T1 sequence (P24385 whole entry partner): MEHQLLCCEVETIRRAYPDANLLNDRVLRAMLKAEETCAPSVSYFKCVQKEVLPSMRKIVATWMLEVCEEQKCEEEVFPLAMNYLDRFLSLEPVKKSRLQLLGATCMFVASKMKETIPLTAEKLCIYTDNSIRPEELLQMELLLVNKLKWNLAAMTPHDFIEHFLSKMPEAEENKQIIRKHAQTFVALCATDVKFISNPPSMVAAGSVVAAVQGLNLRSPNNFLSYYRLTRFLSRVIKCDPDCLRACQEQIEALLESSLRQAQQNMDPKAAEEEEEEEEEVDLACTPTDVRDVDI

What is called IC50 is the concentration at which inhibition is half-maximal. `CN(C)C1CCN(c2ccc(NC(=O)c3n[nH]cc3NC(=O)c3c(F)cccc3F)nc2)CC1` [Example 8]: the IC50 on CDK4/CyclinD1 is under 100 nM. In addition, the “selectivity for CDK4 relative to CDK2 (in words)” value on CDK2/CyclinA was “selective for CDK4 relative to CDK2”. With `CN(C)C1CCN(c2ccc(NC(=O)c3n[nH]cc3NC(=O)c3c(F)cccc3F)cc2)CC1` [Example 9], the half-inhibitory concentration (IC50) on CDK4/CyclinD1 is under 100 nM. The “selectivity for CDK4 relative to CDK2 (in words)” value on CDK2/CyclinA is listed as “selective for CDK4 relative to CDK2”. With `O=C(Nc1ccc(N2CCNCC2)cn1)c1n[nH]cc1NC(=O)c1c(F)cccc1F` [Example 10], the IC50 on CDK4/CyclinD1 was under 100 nM. In addition, at CDK2/CyclinA, the “selectivity for CDK4 relative to CDK2 (in words)” value is recorded as “selective for CDK4 relative to CDK2”. Regarding `O=C(Nc1ccc(N2CCNCC2)cn1)c1n[nH]cc1NC(=O)c1c(Cl)cccc1Cl` [Example 7], at CDK4/CyclinD1, the IC50 is under 100 nM. In addition, on CDK2/CyclinA, the “selectivity for CDK4 relative to CDK2 (in words)” value is reported as “selective for CDK4 relative to CDK2”.

`O=C(Nc1nnc(CCN2CCCCC2)s1)c1n[nH]cc1NC(=O)c1c(F)cccc1F` [Example 1]: at CDK4/CyclinD1, the half-inhibitory concentration (IC50) is under 5000 nM.
